According to PMC2920814 (PLoS ONE, 2010):
Several values for one entry are separate records, joined by “and”; a condition that tells them apart may be missing. Equal values may be shown once. Entries after “also recorded” stand apart in the source; their conditions may differ.

Key:
Erk2 [1] = target: Erk2 (Mus musculus, UniProt P63085); assay: Affinity chromatography on immobilized drugs, Western blotting; format: binding; conditions: adult mouse brain extract 500 µg, sepharose beads
pyridoxal kinase (PDXK) = target: T1, pyridoxal kinase (PDXK) (Mus musculus, UniProt Q8K183); assay: as above; format: binding; conditions: adult mouse brain extract 500 µg, sepharose beads
T1 sequence (Q8K183 1-312): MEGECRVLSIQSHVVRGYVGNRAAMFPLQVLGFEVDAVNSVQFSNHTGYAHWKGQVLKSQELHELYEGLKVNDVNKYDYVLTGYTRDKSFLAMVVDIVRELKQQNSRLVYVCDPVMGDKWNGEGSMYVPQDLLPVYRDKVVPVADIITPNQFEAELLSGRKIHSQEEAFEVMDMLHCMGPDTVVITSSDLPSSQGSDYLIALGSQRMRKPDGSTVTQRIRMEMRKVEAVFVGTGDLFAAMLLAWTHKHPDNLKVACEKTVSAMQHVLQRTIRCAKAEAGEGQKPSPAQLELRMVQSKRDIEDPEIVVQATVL

[2] = test system: E18 mixed hippocampal cell cultures; assay: Kainate (KA)-induced neuronal excitotoxicity, PI staining; format: cell-based, rat (Wistar); conditions: KA 200 µM for 5 hrs; for neuroprotective effect on KA-induced neuronal death (relative neuronal death): 10 div cultures, compound added with KA, 0.05 to 50 µM
[3] = Blood brain barrier permeability, brain and plasma level after IV injection (LC/MS/MS); format: in vivo; conditions: SD, rat, brain, sampling time 15 min, healthy adult rats, n = 2
Experimental: Dosed animals were sacrificed at 15 min after the end of the intravenous injection. Blood were collected through the retro-orbital sinus using a capillary tube. Animals were then perfused with saline solution into the heart to […] the brain. Brain was collected, and homogenized. Both plasma and brain samples were analyzed using LC/MS/MS determination, according to ADME-Bioanalysis (Vergeze, France) procedures.

[4] = test system: permanent focal cerebral ischemia (pMCAo) in adult mice; assay: Permanent middle cerebral artery occlusion (pMCAo), infarct volumes by TTC staining; format: in vivo, mouse (C57 b/6); conditions: 3 hrs after occlusion
CDK5/p25 = test system: CDK5/p25; parameters: method as in PMID 15975926, PMID 15985434; conditions: previously described; ref [30], [31]; cited from earlier work
CDK2/CyclE = test system: CDK2/CyclE; parameters: method as in PMID 15975926, PMID 15985434; conditions: previously described; ref [30], [31]; cited from earlier work
ERK2 [5] = test system: ERK2; parameters: method as in PMID 15975926, PMID 15985434; conditions: previously described; ref [30], [31]; cited from earlier work
CK1 = test system: CK1; parameters: method as in PMID 15975926, PMID 15985434; conditions: previously described; ref [30], [31]; cited from earlier work
CDK1/CyclB = test system: CDK1/CyclB; parameters: method as in PMID 15975926, PMID 15985434; conditions: previously described; ref [30], [31]; cited from earlier work
[6] = ICV infusion 500 µM starting 48 hrs before pMCAo
[7] = IP 25 mg/kg 15 min pre- and 1 hr post-MCAo, 25 mg/kg

Chain of Erk2 (P63085 whole entry): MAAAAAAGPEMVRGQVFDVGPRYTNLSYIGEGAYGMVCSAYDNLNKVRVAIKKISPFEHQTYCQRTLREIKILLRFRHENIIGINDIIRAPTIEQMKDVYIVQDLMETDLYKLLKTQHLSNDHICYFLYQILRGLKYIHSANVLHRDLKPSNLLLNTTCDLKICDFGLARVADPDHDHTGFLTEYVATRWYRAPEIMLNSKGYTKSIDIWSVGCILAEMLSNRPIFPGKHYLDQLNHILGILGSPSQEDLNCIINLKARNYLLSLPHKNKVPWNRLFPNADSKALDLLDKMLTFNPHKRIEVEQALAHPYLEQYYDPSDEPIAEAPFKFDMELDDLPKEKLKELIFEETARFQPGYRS

SMILES: CC[C@H](CO)Nc1nc(NCc2ccccc2)c2ncn(C(C)C)c2n1 [(R)-roscovitine]
- binding of Erk2 to immobilized compound (Erk2 [1]): bind
- binding of PDXK to immobilized compound (pyridoxal kinase (PDXK)): bind

SMILES: CC[C@@H](CO)Nc1nc(NCc2ccccc2)c2ncn(C(C)C)c2n1 [(S)-roscovitine]
- neuroprotective effect compared to the (R) stereoisomer ([2]; 0.5 µM): significantly stronger neuroprotective effect; also recorded: significantly increased neuroprotective activity
- Kp at 0.25 h ([3]; 20 mg/kg, i.v. 20 mg/kg): 0.15
- Kp at 0.25 h ([3]; 30 mg/kg, i.v. 30 mg/kg): 0.17
- binding of Erk2 to immobilized compound (Erk2 [1]): preferentially bound and bind
- decrease of the total infarct volume compared to vehicle [4, 6]: 28% and 27.7%
- ischemic core volume compared to vehicle [4, 6]: comparable
- reduction of the ischemic (hypometabolic) zone volume compared to vehicle [4, 6]: 36% and 35.8%
- ischemic core volume compared to vehicle ([4]; IP 25 mg/kg 15 min pre- and 1 hr post-MCAo): comparable
- decrease of the ischemic (hypometabolic) zone volume compared to vehicle [4, 7]: 39% and 38.9%
- decrease of the total infarct volume compared to vehicle [4, 7]: 31% and 30.7%
- binding of PDXK to immobilized compound (pyridoxal kinase (PDXK)): did not bind

SMILES: CC[C@H](CO)Nc1nc(N(C)Cc2ccccc2)c2ncn(C(C)C)c2n1 [N^6-methyl (R)-roscovitine]
- neuroprotective effect on KA-induced neuronal death (relative neuronal death) [2]: no significant neuroprotective effect
- neuroprotective effect on KA-induced neuronal death (relative neuronal death) ([2]; listed as N^6-methyl-(R)-roscovitine): did not exhibited any neuroprotective effect
- IC50 (CDK5/p25): 45 µM
- IC50 (CDK2/CyclE): 250 µM
- IC50 (ERK2 [5]): > 1000 µM
- IC50 (CK1): > 1000 µM
- IC50 (CDK1/CyclB): 45 µM
- binding of PDXK to immobilized compound (pyridoxal kinase (PDXK)): bind

SMILES: CC[C@H](CO)Nc1nc(OCc2ccccc2)c2ncn(C(C)C)c2n1 [O^6-(R)-roscovitine]
- neuroprotective effect on KA-induced neuronal death (relative neuronal death) [2]: no significant neuroprotective effect; also recorded: did not exhibited any neuroprotective effect
- IC50 (CDK5/p25): 200 µM
- IC50 (CDK2/CyclE): 250 µM
- IC50 (ERK2 [5]): 700 µM
- IC50 (CK1): > 1000 µM
- IC50 (CDK1/CyclB): 100 µM
